Test results taken from the kinase profiling compilation of Christmann-Franck et al. (2016).

Legend:
Test in all cases: split-luciferase competition binding
PRKX (human) = PRKX (human) (UniProt P51817); conditions: compound 10.0 µM
STK32B (human) = STK32B (human) (UniProt Q9NY57); conditions: compound 10.0 µM
AURKB (human) = AURKB (human) (UniProt Q96GD4); conditions: compound 10.0 µM
PRKACB (human) = PRKACB (human) (UniProt P22694); conditions: compound 10.0 µM
PRKCQ (human) = PRKCQ (human) (UniProt Q04759); conditions: compound 10.0 µM
RPS6KA6 KD1 (human) = RPS6KA6 KD1 (human) (UniProt Q9UK32); conditions: compound 10.0 µM
SGK2 (human) = SGK2 (human) (UniProt Q9HBY8); conditions: compound 10.0 µM
PDPK1 (human) = PDPK1 (human) (UniProt O15530); conditions: compound 10.0 µM
Chain of PDPK1 (human) (O15530 whole entry, looked up): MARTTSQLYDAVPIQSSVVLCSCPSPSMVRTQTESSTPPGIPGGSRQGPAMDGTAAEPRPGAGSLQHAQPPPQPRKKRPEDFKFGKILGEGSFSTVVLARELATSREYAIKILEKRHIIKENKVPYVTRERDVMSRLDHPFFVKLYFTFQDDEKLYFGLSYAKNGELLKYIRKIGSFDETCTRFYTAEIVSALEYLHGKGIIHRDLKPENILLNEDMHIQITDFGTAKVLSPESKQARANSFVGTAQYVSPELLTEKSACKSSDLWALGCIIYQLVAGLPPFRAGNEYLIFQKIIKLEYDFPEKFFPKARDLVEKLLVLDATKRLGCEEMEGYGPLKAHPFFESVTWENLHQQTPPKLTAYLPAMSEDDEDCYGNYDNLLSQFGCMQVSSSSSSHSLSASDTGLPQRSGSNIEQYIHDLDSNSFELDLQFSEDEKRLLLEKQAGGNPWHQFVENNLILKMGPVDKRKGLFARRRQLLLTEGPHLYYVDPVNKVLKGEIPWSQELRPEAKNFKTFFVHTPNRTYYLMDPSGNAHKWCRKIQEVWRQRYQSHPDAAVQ

PRKCD (human) = PRKCD (human) (UniProt Q05655); conditions: compound 10.0 µM
RPS6KA3 KD1 (human) = RPS6KA3 KD1 (human) (UniProt P51812); conditions: compound 10.0 µM
AKT2 (human) = AKT2 (human) (UniProt P31751); conditions: compound 10.0 µM
RPS6KA1 KD1 (human) = RPS6KA1 KD1 (human) (UniProt Q15418); conditions: compound 10.0 µM
DMPK (human) = DMPK (human) (UniProt Q09013); conditions: compound 10.0 µM
Chain of DMPK (human) (Q09013 whole entry, looked up): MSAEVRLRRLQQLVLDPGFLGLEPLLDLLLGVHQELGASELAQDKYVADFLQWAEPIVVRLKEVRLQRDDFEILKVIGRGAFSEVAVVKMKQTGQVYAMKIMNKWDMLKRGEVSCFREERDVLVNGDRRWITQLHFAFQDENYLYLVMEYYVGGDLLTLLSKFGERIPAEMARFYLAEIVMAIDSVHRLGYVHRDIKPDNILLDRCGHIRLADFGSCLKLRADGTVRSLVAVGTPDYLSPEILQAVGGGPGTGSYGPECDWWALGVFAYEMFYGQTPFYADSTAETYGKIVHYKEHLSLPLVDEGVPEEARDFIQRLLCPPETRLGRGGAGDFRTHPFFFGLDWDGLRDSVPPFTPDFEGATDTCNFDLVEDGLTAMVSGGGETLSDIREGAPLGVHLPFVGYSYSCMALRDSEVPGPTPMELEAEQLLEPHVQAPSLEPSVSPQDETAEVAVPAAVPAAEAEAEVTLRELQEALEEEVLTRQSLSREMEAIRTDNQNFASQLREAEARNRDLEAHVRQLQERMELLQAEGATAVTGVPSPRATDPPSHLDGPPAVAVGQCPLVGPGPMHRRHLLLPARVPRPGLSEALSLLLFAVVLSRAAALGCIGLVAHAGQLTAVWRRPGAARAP

PRKCG (human) = PRKCG (human) (UniProt P05129); conditions: compound 10.0 µM
PRKCI (human) = PRKCI (human) (UniProt P41743); conditions: compound 10.0 µM
Chain of PRKCI (human) (P41743 whole entry, looked up): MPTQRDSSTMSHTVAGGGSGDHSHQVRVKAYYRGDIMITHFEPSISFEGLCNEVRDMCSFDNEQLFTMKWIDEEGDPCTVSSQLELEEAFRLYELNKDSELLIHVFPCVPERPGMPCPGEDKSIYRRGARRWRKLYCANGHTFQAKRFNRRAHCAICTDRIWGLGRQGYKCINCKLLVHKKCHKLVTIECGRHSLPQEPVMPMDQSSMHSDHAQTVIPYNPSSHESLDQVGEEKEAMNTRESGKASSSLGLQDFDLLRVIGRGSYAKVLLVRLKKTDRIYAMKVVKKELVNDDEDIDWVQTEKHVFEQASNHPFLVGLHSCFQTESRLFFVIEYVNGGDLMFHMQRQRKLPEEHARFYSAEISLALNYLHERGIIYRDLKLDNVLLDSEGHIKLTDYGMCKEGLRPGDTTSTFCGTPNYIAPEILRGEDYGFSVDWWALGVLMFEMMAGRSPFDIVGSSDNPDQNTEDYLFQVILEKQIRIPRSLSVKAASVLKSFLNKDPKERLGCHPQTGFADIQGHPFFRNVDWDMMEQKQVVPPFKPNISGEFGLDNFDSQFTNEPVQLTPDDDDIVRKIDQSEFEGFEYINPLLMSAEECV

PRKCH (human) = PRKCH (human) (UniProt P24723); conditions: compound 10.0 µM
RPS6KA5 KD1 (human) = RPS6KA5 KD1 (human) (UniProt O75582); conditions: compound 10.0 µM
PKN1 (human) = PKN1 (human) (UniProt Q16512); conditions: compound 10.0 µM
PRKCE (human) = PRKCE (human) (UniProt Q02156); conditions: compound 10.0 µM
Chain of PRKCE (human) (Q02156 whole entry, looked up): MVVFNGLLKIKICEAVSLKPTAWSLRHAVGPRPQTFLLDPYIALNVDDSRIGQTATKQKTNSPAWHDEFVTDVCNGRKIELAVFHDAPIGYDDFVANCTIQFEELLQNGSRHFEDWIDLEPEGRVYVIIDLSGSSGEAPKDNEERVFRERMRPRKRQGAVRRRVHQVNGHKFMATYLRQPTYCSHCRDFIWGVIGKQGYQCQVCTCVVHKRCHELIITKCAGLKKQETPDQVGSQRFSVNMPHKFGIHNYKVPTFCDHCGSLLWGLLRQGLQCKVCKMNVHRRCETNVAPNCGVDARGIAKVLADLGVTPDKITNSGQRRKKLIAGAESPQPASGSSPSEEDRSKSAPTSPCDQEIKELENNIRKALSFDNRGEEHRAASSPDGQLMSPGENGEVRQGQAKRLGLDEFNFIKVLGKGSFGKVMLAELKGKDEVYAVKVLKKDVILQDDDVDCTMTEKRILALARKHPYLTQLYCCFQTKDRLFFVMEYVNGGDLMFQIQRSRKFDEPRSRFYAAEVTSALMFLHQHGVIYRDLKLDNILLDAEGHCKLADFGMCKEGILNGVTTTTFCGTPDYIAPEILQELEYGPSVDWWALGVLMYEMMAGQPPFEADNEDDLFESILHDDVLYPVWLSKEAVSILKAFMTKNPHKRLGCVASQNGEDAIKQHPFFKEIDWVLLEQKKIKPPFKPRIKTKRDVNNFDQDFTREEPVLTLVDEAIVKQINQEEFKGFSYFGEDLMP

SGK3 (human) = SGK3 (human) (UniProt Q96BR1); conditions: compound 10.0 µM
AKT1 (human) = AKT1 (human) (UniProt P31749); conditions: compound 10.0 µM
RPS6KA2 KD1 (human) = RPS6KA2 KD1 (human) (UniProt Q15349); conditions: compound 10.0 µM
AURKC (human) = AURKC (human) (UniProt Q9UQB9); conditions: compound 10.0 µM
AKT3 (human) = AKT3 (human) (UniProt Q9Y243); conditions: compound 10.0 µM
Chain of AKT3 (human) (Q9Y243 whole entry, looked up): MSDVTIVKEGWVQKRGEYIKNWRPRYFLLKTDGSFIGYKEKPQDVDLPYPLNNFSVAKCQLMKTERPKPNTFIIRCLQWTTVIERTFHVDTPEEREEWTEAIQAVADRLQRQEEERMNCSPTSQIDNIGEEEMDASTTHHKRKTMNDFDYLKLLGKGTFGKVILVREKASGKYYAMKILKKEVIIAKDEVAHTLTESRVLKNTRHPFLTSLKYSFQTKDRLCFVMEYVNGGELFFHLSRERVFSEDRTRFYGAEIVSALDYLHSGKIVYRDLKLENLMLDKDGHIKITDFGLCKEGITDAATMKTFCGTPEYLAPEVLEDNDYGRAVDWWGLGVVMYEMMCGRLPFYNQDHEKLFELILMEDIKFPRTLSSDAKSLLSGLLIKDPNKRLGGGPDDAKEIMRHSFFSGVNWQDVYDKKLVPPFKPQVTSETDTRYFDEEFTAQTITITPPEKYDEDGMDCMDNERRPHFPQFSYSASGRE

RPS6KA4 KD1 (human) = RPS6KA4 KD1 (human) (UniProt O75676); conditions: compound 10.0 µM
PRKACA (mouse) = conditions: compound 10.0 µM; accession and sequence are those of the human protein
AURKA (human) = AURKA (human) (UniProt O14965); conditions: compound 10.0 µM

Chain of AURKB (human) (Q96GD4 whole entry, looked up): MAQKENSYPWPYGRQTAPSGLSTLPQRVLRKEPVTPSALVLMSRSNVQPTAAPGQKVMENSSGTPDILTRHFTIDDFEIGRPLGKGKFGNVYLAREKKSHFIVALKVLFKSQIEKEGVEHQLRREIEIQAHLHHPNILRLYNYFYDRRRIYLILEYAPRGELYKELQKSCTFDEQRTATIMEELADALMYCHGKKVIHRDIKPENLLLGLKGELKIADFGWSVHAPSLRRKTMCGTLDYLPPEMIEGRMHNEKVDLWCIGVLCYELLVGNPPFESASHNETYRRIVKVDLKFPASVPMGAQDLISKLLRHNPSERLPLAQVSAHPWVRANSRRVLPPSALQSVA
Chain of PRKX (human) (P51817 whole entry, looked up): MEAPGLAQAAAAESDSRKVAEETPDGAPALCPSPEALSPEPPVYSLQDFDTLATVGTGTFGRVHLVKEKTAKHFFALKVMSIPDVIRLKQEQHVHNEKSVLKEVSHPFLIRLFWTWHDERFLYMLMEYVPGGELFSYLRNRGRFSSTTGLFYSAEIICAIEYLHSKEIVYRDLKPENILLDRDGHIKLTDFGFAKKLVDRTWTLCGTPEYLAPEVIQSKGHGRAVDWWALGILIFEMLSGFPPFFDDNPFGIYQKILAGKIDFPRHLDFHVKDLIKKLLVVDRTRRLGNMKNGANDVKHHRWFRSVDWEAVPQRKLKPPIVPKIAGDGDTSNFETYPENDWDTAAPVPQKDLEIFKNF
Chain of STK32B (human) (Q9NY57 whole entry, looked up): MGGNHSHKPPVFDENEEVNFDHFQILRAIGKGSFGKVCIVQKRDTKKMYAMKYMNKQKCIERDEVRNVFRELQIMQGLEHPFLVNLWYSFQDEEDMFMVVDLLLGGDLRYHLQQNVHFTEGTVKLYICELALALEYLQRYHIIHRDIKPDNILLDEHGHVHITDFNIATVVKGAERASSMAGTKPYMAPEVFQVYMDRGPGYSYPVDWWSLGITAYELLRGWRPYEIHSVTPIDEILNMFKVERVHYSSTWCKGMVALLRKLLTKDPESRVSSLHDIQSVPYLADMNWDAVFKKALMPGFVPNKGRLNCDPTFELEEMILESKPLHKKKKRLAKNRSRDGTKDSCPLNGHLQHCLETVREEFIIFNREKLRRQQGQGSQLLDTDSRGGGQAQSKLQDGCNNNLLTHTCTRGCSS

inhibition (PRKX (human)) | inhibition (STK32B (human)) | inhibition (AURKB (human)) | inhibition (PRKACB (human)) | inhibition (PRKCQ (human)) | inhibition (RPS6KA6 KD1 (human)) | inhibition (SGK2 (human)) | inhibition (PDPK1 (human)) | inhibition (PRKCD (human)) | inhibition (RPS6KA3 KD1 (human)) | inhibition (AKT2 (human)) | inhibition (RPS6KA1 KD1 (human)) | inhibition (DMPK (human)) | inhibition (PRKCG (human)) | inhibition (PRKCI (human)) | inhibition (PRKCH (human)) | inhibition (RPS6KA5 KD1 (human)) | inhibition (PKN1 (human)) | inhibition (PRKCE (human)) | inhibition (SGK3 (human)) | Structure (SMILES) | other results
0% | 0% | 0% | 3% | 1% | 5% | 3% | 0% | 0% | 0% | 0% | 0% | 7% | 0% | 1% | 0% | 2% | 0% | 1% | 1% | NC(=O)c1ccc(-c2nc(-c3ccccn3)c(-c3ccc4c(c3)OCCO4)[nH]2)cc1 | inhibition (AKT1 (human)): 2%; inhibition (RPS6KA2 KD1 (human)): 0%; inhibition (AURKC (human)): 2%; inhibition (AKT3 (human)): 0%; inhibition (RPS6KA4 KD1 (human)): 0%; inhibition (PRKACA (mouse)): 0%; inhibition (AURKA (human)): 0%
0% | 43% | 0% | 8% | 0% | 7% | 0% | 0% | 0% | 6% | 0% | 7% | 26% | 0% | 0% | 4% | 1% | 0% | 0% | 0% | CC(C)(C)n1nc(-c2ccc(Cl)cc2)c2c(N)ncnc21 | inhibition (AKT1 (human)): 0%; inhibition (RPS6KA2 KD1 (human)): 4%; inhibition (AURKC (human)): 6%; inhibition (AKT3 (human)): 0%; inhibition (RPS6KA4 KD1 (human)): 0%; inhibition (PRKACA (mouse)): 30%; inhibition (AURKA (human)): 0%
0% | 0% | 0% | 0% | 0% | 0% | 0% | 0% | 2% | 0% | 0% | 0% | 0% | 0% | 0% | 0% | 0% | 0% | 0% | 0% | N#C/C(=C\c1ccc(O)c(O)c1)C(=O)NCc1ccccc1 | inhibition (AKT1 (human)): 0%; inhibition (RPS6KA2 KD1 (human)): 0%; inhibition (AURKC (human)): 10%; inhibition (AKT3 (human)): 0%; inhibition (RPS6KA4 KD1 (human)): 0%; inhibition (PRKACA (mouse)): 3%; inhibition (AURKA (human)): 0%
7% | 14% | 9% | 4% | 7% | 0% | 7% | 0% | 0% | 8% | 0% | 0% | 0% | 2% | 0% | 11% | 0% | 1% | 2% | 7% | COc1cc2ncnc(Nc3ccc(Cl)cc3F)c2cc1OC | inhibition (AKT1 (human)): 0%; inhibition (RPS6KA2 KD1 (human)): 0%; inhibition (AURKC (human)): 18%; inhibition (AKT3 (human)): 0%; inhibition (RPS6KA4 KD1 (human)): 2%; inhibition (PRKACA (mouse)): 2%; inhibition (AURKA (human)): 7%

Continued, molecule first:

Structure (SMILES) | inhibition (PRKX (human)) | inhibition (STK32B (human)) | inhibition (AURKB (human)) | inhibition (PRKACB (human)) | inhibition (PRKCQ (human)) | inhibition (RPS6KA6 KD1 (human)) | inhibition (SGK2 (human)) | inhibition (PDPK1 (human)) | inhibition (PRKCD (human)) | inhibition (RPS6KA3 KD1 (human)) | inhibition (AKT2 (human)) | inhibition (RPS6KA1 KD1 (human)) | inhibition (DMPK (human)) | inhibition (PRKCG (human)) | inhibition (PRKCI (human)) | inhibition (PRKCH (human)) | inhibition (RPS6KA5 KD1 (human)) | inhibition (PKN1 (human)) | inhibition (PRKCE (human)) | inhibition (SGK3 (human)) | other results
Cc1cc2nc3c(=O)[nH]c(=O)nc-3n(C)c2cc1C=O | 2% | 18% | 3% | 21% | 5% | 1% | 3% | 0% | 31% | 0% | 0% | 0% | 0% | 9% | 0% | 8% | 8% | 0% | 13% | 0% | inhibition (AKT1 (human)): 24%; inhibition (RPS6KA2 KD1 (human)): 8%; inhibition (AURKC (human)): 12%; inhibition (AKT3 (human)): 0%; inhibition (RPS6KA4 KD1 (human)): 0%; inhibition (PRKACA (mouse)): 11%; inhibition (AURKA (human)): 5%
CC(C)[C@H](CO)Nc1nc(Nc2ccc(C(=O)O)c(Cl)c2)c2ncn(C(C)C)c2n1 | 3% | 9% | 15% | 3% | 11% | 50% | 0% | 0% | 5% | 66% | 0% | 81% | 0% | 0% | 0% | 2% | 0% | 0% | 2% | 3% | inhibition (AKT1 (human)): 0%; inhibition (RPS6KA2 KD1 (human)): 79%; inhibition (AURKC (human)): 7%; inhibition (AKT3 (human)): 0%; inhibition (RPS6KA4 KD1 (human)): 44%; inhibition (PRKACA (mouse)): 21%; inhibition (AURKA (human)): 3%
Cc1[nH]c(/C=C2\C(=O)Nc3ccc(S(=O)(=O)Cc4c(Cl)cccc4Cl)cc32)c(C)c1C(=O)N1CCC[C@@H]1CN1CCCC1 | 7% | 23% | 33% | 13% | 0% | 25% | 2% | 7% | 0% | 13% | 0% | 32% | 9% | 12% | 7% | 12% | 22% | 0% | 7% | 0% | inhibition (AKT1 (human)): 8%; inhibition (RPS6KA2 KD1 (human)): 14%; inhibition (AURKC (human)): 39%; inhibition (AKT3 (human)): 0%; inhibition (RPS6KA4 KD1 (human)): 12%; inhibition (PRKACA (mouse)): 1%; inhibition (AURKA (human)): 19%
N#C/C(=C\c1ccc(O)c(O)c1)C(N)=S | 0% | 1% | 0% | 0% | 0% | 0% | 0% | 0% | 0% | 0% | 0% | 0% | 0% | 0% | 0% | 0% | 0% | 5% | 0% | 0% | inhibition (AKT1 (human)): 0%; inhibition (RPS6KA2 KD1 (human)): 0%; inhibition (AURKC (human)): 0%; inhibition (AKT3 (human)): 0%; inhibition (RPS6KA4 KD1 (human)): 0%; inhibition (PRKACA (mouse)): 4%; inhibition (AURKA (human)): 1%
C/C(O)=C(\C#N)C(=O)Nc1cc(Br)ccc1Br | 0% | 0% | 0% | 0% | 0% | 0% | 0% | 0% | 0% | 0% | 0% | 0% | 0% | 0% | 0% | 0% | 0% | 0% | 0% | 0% | inhibition (AKT1 (human)): 0%; inhibition (RPS6KA2 KD1 (human)): 0%; inhibition (AURKC (human)): 0%; inhibition (AKT3 (human)): 0%; inhibition (RPS6KA4 KD1 (human)): 0%; inhibition (PRKACA (mouse)): 7%; inhibition (AURKA (human)): 0%
